Patent publication US5601801A, “Radiolabelled angiotensin converting enzyme inhibitors” (Merck Frosst Canada, Inc., priority 1994, dated 1997)
Where two headings read alike, the source gives them in different places.

Tests used:
[1] = Biodistribution of ^131 I-3 in CD-1 Mice, normal and blocked with lisinopril; format: in vivo; details: for tissue uptake at 0.5 h / tissue uptake at 1.5 h / tissue uptake at 3 h / tissue uptake at 6 h: iv, 1 uCi
Description: It is well known that there are high ACE concentrations in the lungs, kidneys, pre-optic region of the brain and the blood.^4 Localization of the radioactivity in these organs was expected. […] A blocking study was undertaken to differentiate between specific and non-specific binding.
^131 I-3 was prepared as described above and used in this experiment. The experiment was carried out using male CD-1 mice. The mice were fasted 15 hours prior to injection with 1 μCi of ^131 I-3 by bolus injection into the lateral tail vein. At various times following the dosing, selected mice were sacrificed, exsanguinated and dissected. The desired organs were rinsed, blotted, weighed and counted. For the blocking experiment, mice were treated with 10 μg of lisinopril (by bolus injection into the lateral tail vein) 5 minutes before injection of ^131 I-3.
This blocking experiment was an attempt to differentiate between specific and non-specific binding. […] This is illustrated by the dramatic decrease in radioactivity present in these organs in the blocked biodistribution as compared to the normal biodistribution. […] The anomaly of the first time point has yet to be explained.

[2] = Imaging of a New Zealand White Rabbit with ^131 I-3; format: in vivo; details: intravenous ear injection
Text: It was thought that this small intestine uptake could be due to a difference in mouse ACE or in its distribution as compared to human ACE. It was decided to carry out this imaging experiment in a rabbit since rabbit ACE is believed to be similar to human ACE. It should be noted that it was rabbit ACE which was used in the IC50 assay.
^131 I-3 prepared as described above was taken up in phosphate buffered saline, the solution was filtered through a 0.2μ Millipore filter, and was introduced into the rabbit by intravenous ear injection followed by imaging of the rabbit.

[3] = mouse, blood, blocked (lisinopril), read-out: Biodistribution, Blood
[4] = mouse, blood, normal (not blocked), read-out: Biodistribution, Blood
[5] = mouse, contents, blocked (lisinopril), read-out: Biodistribution, Contents
[6] = mouse, contents, normal (not blocked), read-out: Biodistribution, Contents
[7] = mouse, fat, blocked (lisinopril), read-out: Biodistribution, Fat
[8] = mouse, fat, normal (not blocked), read-out: Biodistribution, Fat
[9] = mouse, kidney, blocked (lisinopril), read-out: Biodistribution, Kidney
[10] = mouse, kidney, normal (not blocked), read-out: Biodistribution, Kidney
[11] = mouse, large intestine, blocked (lisinopril), read-out: Biodistribution, lg. Intest.
[12] = mouse, large intestine, normal (not blocked), read-out: Biodistribution, lg. Intest.
[13] = mouse, liver, blocked (lisinopril), read-out: Biodistribution, Liver
[14] = mouse, liver, normal (not blocked), read-out: Biodistribution, Liver
[15] = mouse, lung, blocked (lisinopril), read-out: Biodistribution, Lung
[16] = mouse, lung, normal (not blocked), read-out: Biodistribution, Lung
[17] = mouse, muscle, blocked (lisinopril), read-out: Biodistribution, Muscle
[18] = mouse, muscle, normal (not blocked), read-out: Biodistribution, Muscle
[19] = mouse, small intestine, blocked (lisinopril), read-out: Biodistribution, Sm. Intest.
[20] = mouse, small intestine, normal (not blocked), read-out: Biodistribution, Sm. Intest.
[21] = mouse, stomach, blocked (lisinopril), read-out: Biodistribution, Stomach
[22] = mouse, stomach, normal (not blocked), read-out: Biodistribution, Stomach

For O=C(NCCCC[C@H](N[C@@H](CCc1ccccc1)C(=O)O)C(=O)N1CCC[C@H]1C(=O)O)c1cccc([131I])c1 [^131 I-3, Lisinopril N^ε -radioiodobezamide], the “kidney uptake, blocked vs normal” value ([1]; 0.5 hours, pre-injection with lisinopril) was “slight increase (or no change)”, the “nature of uptake in kidney, lung and small intestine” value ([1]; blocking experiment) was “due to specific binding” and the “uptake in kidneys and lungs” value ([1]; early time points) was “uptake in the kidneys and lungs at early time points”. The tissue uptake at 0.5 h ([1]; mouse, blood, 0.5 hours, blocked (lisinopril), read-out: Biodistribution, Blood) was 6 %ID/g, the tissue uptake at 0.5 h ([1]; mouse, blood, 0.5 hours, normal (not blocked), read-out: Biodistribution, Blood) was 5.9 %ID/g and the tissue uptake at 1.5 h [1, 3] was 3.2 %ID/g. The tissue uptake at 1.5 h [1, 4] was 3.2 %ID/g, the tissue uptake at 3 h [1, 3] was 1.3 %ID/g and the tissue uptake at 3 h [1, 4] was 3.1 %ID/g. It also gave a tissue uptake at 6 h [1, 3] of 0.9 %ID/g, a tissue uptake at 6 h [1, 4] of 1 %ID/g and a tissue uptake at 0.5 h ([1]; mouse, contents, 0.5 hours, blocked (lisinopril), read-out: Biodistribution, Contents) of 17.9 %ID/g. The tissue uptake at 0.5 h ([1]; mouse, contents, 0.5 hours, normal (not blocked), read-out: Biodistribution, Contents) was 21.4 %ID/g, the tissue uptake at 1.5 h [1, 5] was 28.5 %ID/g and the tissue uptake at 1.5 h [1, 6] was 22.1 %ID/g. The tissue uptake at 3 h [1, 5] was 15 %ID/g, the tissue uptake at 3 h [1, 6] was 21.4 %ID/g and the tissue uptake at 6 h [1, 5] was 48.9 %ID/g. It also gave a tissue uptake at 6 h [1, 6] of 65.9 %ID/g, a tissue uptake at 0.5 h ([1]; mouse, fat, 0.5 hours, blocked (lisinopril), read-out: Biodistribution, Fat) of 0.6 %ID/g and a tissue uptake at 0.5 h ([1]; mouse, fat, 0.5 hours, normal (not blocked), read-out: Biodistribution, Fat) of 0.7 %ID/g. For the same molecule, the tissue uptake at 1.5 h [1, 7] was 0.5 %ID/g, the tissue uptake at 1.5 h [1, 8] was 0.8 %ID/g and the tissue uptake at 3 h [1, 7] was 0.2 %ID/g. It also gave a tissue uptake at 3 h [1, 8] of 0.4 %ID/g, a tissue uptake at 6 h [1, 7] of 0.1 %ID/g and a tissue uptake at 6 h [1, 8] of 0.2 %ID/g. For the same molecule, the “clearance from small intestine” value ([1]; mouse, in vivo) was “quite slow clearance”, the “clearance from the lungs” value ([1]; mouse, in vivo) was “rapid clearance from the lungs” and the “uptake in the small intestine” value ([1]; mouse, in vivo) was “High uptake in the small intestine”. It also gave a tissue uptake at 0.5 h ([1]; mouse, kidney, 0.5 hours, blocked (lisinopril), read-out: Biodistribution, Kidney) of 9.8 %ID/g, a tissue uptake at 0.5 h ([1]; mouse, kidney, 0.5 hours, normal (not blocked), read-out: Biodistribution, Kidney) of 7.1 %ID/g and a tissue uptake at 1.5 h [1, 9] of 2.4 %ID/g. For the same molecule, the tissue uptake at 1.5 h [1, 10] was 7.1 %ID/g, the tissue uptake at 3 h [1, 9] was 1.4 %ID/g and the tissue uptake at 3 h [1, 10] was 6.9 %ID/g. The tissue uptake at 6 h [1, 9] was 0.5 %ID/g, the tissue uptake at 6 h [1, 10] was 9.6 %ID/g and the tissue uptake at 0.5 h ([1]; mouse, large intestine, 0.5 hours, blocked (lisinopril), read-out: Biodistribution, lg. Intest.) was 1.1 %ID/g. It also gave a tissue uptake at 0.5 h ([1]; mouse, large intestine, 0.5 hours, normal (not blocked), read-out: Biodistribution, lg. Intest.) of 1.5 %ID/g, a tissue uptake at 1.5 h [1, 11] of 1.4 %ID/g and a tissue uptake at 1.5 h [1, 12] of 1.1 %ID/g. It also gave a tissue uptake at 3 h [1, 11] of 13.4 %ID/g, a tissue uptake at 3 h [1, 12] of 2.6 %ID/g and a tissue uptake at 6 h [1, 11] of 14.6 %ID/g. The tissue uptake at 6 h [1, 12] was 18.6 %ID/g, the tissue uptake at 0.5 h ([1]; mouse, liver, 0.5 hours, blocked (lisinopril), read-out: Biodistribution, Liver) was 7.6 %ID/g and the tissue uptake at 0.5 h ([1]; mouse, liver, 0.5 hours, normal (not blocked), read-out: Biodistribution, Liver) was 7.2 %ID/g. The tissue uptake at 1.5 h [1, 13] was 1.4 %ID/g, the tissue uptake at 1.5 h [1, 14] was 4.9 %ID/g and the tissue uptake at 3 h [1, 13] was 1.9 %ID/g. For the same molecule, the tissue uptake at 3 h [1, 14] was 3.8 %ID/g, the tissue uptake at 6 h [1, 13] was 0.3 %ID/g and the tissue uptake at 6 h [1, 14] was 0.8 %ID/g. For the same molecule, the tissue uptake at 0.5 h ([1]; mouse, lung, 0.5 hours, blocked (lisinopril), read-out: Biodistribution, Lung) was 1 %ID/g, the tissue uptake at 0.5 h ([1]; mouse, lung, 0.5 hours, normal (not blocked), read-out: Biodistribution, Lung) was 4.8 %ID/g and the tissue uptake at 1.5 h [1, 15] was 0.6 %ID/g. For the same molecule, the tissue uptake at 1.5 h [1, 16] was 1.8 %ID/g, the tissue uptake at 3 h [1, 15] was 0.5 %ID/g and the tissue uptake at 3 h [1, 16] was 1.7 %ID/g. The tissue uptake at 6 h [1, 15] was 0.3 %ID/g, the tissue uptake at 6 h [1, 16] was 0.5 %ID/g and the tissue uptake at 0.5 h ([1]; mouse, muscle, 0.5 hours, blocked (lisinopril), read-out: Biodistribution, Muscle) was 1.1 %ID/g. It also gave a tissue uptake at 0.5 h ([1]; mouse, muscle, 0.5 hours, normal (not blocked), read-out: Biodistribution, Muscle) of 1.1 %ID/g, a tissue uptake at 1.5 h [1, 17] of 0.4 %ID/g and a tissue uptake at 1.5 h [1, 18] of 0.8 %ID/g. For the same molecule, the tissue uptake at 3 h [1, 17] was 0.3 %ID/g, the tissue uptake at 3 h [1, 18] was 0.6 %ID/g and the tissue uptake at 6 h [1, 17] was 0.2 %ID/g. It also gave a tissue uptake at 6 h [1, 18] of 0.3 %ID/g, a tissue uptake at 0.5 h ([1]; mouse, small intestine, 0.5 hours, blocked (lisinopril), read-out: Biodistribution, Sm. Intest.) of 19.8 %ID/g and a tissue uptake at 0.5 h ([1]; mouse, small intestine, 0.5 hours, normal (not blocked), read-out: Biodistribution, Sm. Intest.) of 31.9 %ID/g. It also gave a tissue uptake at 1.5 h [1, 19] of 21.7 %ID/g, a tissue uptake at 1.5 h [1, 20] of 27 %ID/g and a tissue uptake at 3 h [1, 19] of 14.2 %ID/g. The tissue uptake at 3 h [1, 20] was 27 %ID/g, the tissue uptake at 6 h [1, 19] was 1.2 %ID/g and the tissue uptake at 6 h [1, 20] was 20.1 %ID/g. It also gave a tissue uptake at 0.5 h ([1]; mouse, stomach, 0.5 hours, blocked (lisinopril), read-out: Biodistribution, Stomach) of 24.2 %ID/g, a tissue uptake at 0.5 h ([1]; mouse, stomach, 0.5 hours, normal (not blocked), read-out: Biodistribution, Stomach) of 25.1 %ID/g and a tissue uptake at 1.5 h [1, 21] of 13.3 %ID/g. The tissue uptake at 1.5 h [1, 22] was 28.7 %ID/g, the tissue uptake at 3 h [1, 21] was 12.8 %ID/g and the tissue uptake at 3 h [1, 22] was 14.2 %ID/g. For the same molecule, the tissue uptake at 6 h [1, 21] was 4.2 %ID/g, the tissue uptake at 6 h [1, 22] was 5.1 %ID/g and the “blocking of uptake in kidney and small intestine” value ([1]; pre-injection with lisinopril) was “effectively blocked at all time points”. For the same molecule, the “uptake in all other organs, blocked vs normal” value ([1]; pre-injection with lisinopril) was “no difference in uptake between the normal and blocked biodistributions” and the “organs imaged” value [2] was “clearly show the lungs and kidneys at early time points, as well as in the bladder at later time points”.
